As usually defined, the melting point is the temperature, or range, at which the solid turns liquid.

For data set [1], the target named is T1, NK3 (Homo sapiens, UniProt P29371).
T1 sequence (P29371 1-465): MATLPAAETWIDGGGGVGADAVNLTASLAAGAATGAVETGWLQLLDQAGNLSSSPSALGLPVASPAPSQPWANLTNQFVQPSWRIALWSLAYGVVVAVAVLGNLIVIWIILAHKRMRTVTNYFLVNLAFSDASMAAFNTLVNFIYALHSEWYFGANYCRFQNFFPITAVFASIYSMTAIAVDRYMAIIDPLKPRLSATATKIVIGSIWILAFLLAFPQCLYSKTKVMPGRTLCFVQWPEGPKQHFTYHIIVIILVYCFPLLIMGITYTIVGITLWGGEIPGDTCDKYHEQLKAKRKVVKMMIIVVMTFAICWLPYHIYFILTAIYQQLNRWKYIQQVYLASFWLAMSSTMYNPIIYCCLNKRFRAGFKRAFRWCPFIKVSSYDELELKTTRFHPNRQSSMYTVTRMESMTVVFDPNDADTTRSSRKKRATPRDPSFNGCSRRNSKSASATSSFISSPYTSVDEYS
Description: Signal transduction (ST), intracellular Ca++ FLIPR, NK3. Type of data set: cell-based. Particulars: antagonist, read-out: NK3 pIC50 (converted).

For data set [2], the target named is NK1 (Homo sapiens, UniProt P25103). Description: Signal transduction (ST), intracellular Ca++ FLIPR, NK1. The class given is cell-based. Particulars: antagonist, read-out: NK1 pIC50 (converted). The method, then:
This test evaluates in vitro functional NK1 antagonistic activity. For the measurements of intracellular Ca^++ concentrations the cells were grown on 96-well (black wall/transparent bottom) plates from Costar for 2 days until they reached confluence. The cells were loaded with 2 μM Fluo3 in DMEM containing 0.1% BSA and 2.5 mM probenecid for 1 h at 37° C. They were washed 3× with a Krebs buffer (140 mM NaCl, 1 mM MgCl2×6H2O, 5 mM KCl, 10 mM glucose, 5 mM HEPES; 1.25 mM CaCl2; pH 7.4) containing 2.5 mM probenecid and 0.1% BSA (Ca^++-buffer). The cells were preincubated with a concentration range of antagonists for 20 min at RT and Ca^++-signals after addition of the agonists were measured in a Fluorescence Image Plate Reader (FLIPR from Molecular Devices, Crawley, England). The peak of the Ca^++-transient was considered as the relevant signal and the mean values of corresponding wells were analysed as described below.
The sigmoidal dose response curves were analysed by computerised curve-fitting, using the GraphPad Program. The EC50-value of a compound is the effective dose showing 50% of maximal effect. For mean curves the response to the agonist with the highest potency was normalised to 100%. For antagonist responses the IC50-value was calculated using non-linear regression. […]

Data set [3] deals with T2, NK2 (Homo sapiens, UniProt P21452).
T2 sequence (P21452 1-398): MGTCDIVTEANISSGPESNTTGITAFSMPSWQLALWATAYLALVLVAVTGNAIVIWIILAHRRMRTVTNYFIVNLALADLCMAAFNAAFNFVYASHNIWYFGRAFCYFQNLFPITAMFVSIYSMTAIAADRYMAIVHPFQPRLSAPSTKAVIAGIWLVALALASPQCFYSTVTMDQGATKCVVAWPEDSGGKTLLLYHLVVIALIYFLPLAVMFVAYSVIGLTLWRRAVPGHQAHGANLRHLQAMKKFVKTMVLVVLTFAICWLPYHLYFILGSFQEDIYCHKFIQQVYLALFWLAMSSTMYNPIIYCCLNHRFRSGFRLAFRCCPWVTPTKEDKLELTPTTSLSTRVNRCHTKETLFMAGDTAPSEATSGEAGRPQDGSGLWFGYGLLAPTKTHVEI
Description: Signal transduction (ST), intracellular Ca++ FLIPR, NK2. Type of data set: cell-based. Particulars: antagonist, read-out: NK2 pIC50 (converted).

Where only a bound is given, the exact number is not on record here.

Chain of NK1 (P25103 whole entry): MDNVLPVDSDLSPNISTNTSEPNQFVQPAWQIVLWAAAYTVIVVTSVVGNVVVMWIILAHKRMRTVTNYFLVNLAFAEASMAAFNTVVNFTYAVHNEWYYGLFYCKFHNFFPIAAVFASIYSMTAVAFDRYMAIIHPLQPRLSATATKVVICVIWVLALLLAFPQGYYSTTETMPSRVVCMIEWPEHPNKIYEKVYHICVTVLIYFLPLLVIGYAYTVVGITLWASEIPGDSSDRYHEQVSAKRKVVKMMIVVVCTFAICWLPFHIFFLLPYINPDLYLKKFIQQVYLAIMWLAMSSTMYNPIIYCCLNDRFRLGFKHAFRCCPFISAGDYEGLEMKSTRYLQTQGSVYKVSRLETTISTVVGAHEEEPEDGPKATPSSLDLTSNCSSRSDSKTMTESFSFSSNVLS

For `CCC(CC)CN1CCC2(CCN(C3CCN(C(=O)c4cc(C(F)(F)F)cc(C(F)(F)F)c4)C(Cc4ccccc4)C3)CC2)OC1=O` (single isomer, unassigned) [Compound 2.3], the IC50 in data set [1] is 5.01 µM; in data set [2], 0.398 µM; in data set [3] it was more than 10 µM.
The corresponding values for `Cc1nnsc1C(=O)N1CCC2(CC1)CCN(C1CCN(C(=O)c3cc(C(F)(F)F)cc(C(F)(F)F)c3)C(Cc3ccccc3)C1)C(=O)O2` (stereo not drawn) [Compound 1.10] are 0.316 µM, 0.0126 µM and 6.31 µM.
For `Cc1ccccc1CN1CCC2(CCN(C3CCN(C(=O)c4cc(C(F)(F)F)cc(C(F)(F)F)c4)C(Cc4ccccc4)C3)CC2)OC1=O` (stereo not drawn) [Compound 2.11], in that order: 7.94 µM, 0.398 µM and more than 10 µM.
For `O=C(c1ccccc1)N1CCC2(CC1)CCN(C1CCN(C(=O)c3cc(C(F)(F)F)cc(C(F)(F)F)c3)C(Cc3ccccc3)C1)C(=O)O2` (stereo not drawn) [Compound 1.11], in that order: 0.794 µM, 0.0316 µM and more than 10 µM.
As for `O=C1OC2(CCN1Cc1cccnc1)CCN(C1CCN(C(=O)c3cc(C(F)(F)F)cc(C(F)(F)F)c3)C(Cc3ccccc3)C1)CC2` (single isomer, unassigned) [Compound 2.17], the results for the IC50 in data set [1], in data set [2] and in data set [3] were 6.31 µM, 0.1 µM and 2.51 µM, respectively.
The corresponding values for `O=C(C1CC1)N1CCC2(CC1)CCN([C@H]1CCN(C(=O)c3cc(C(F)(F)F)cc(C(F)(F)F)c3)[C@H](Cc3ccccc3)C1)C(=O)O2` [Compound 1.4] are 0.126 µM, 0.0126 µM and 1 µM.
For `CC(C)(C)C(=O)N1CCC2(CC1)CCN(C1CCN(C(=O)c3cc(C(F)(F)F)cc(C(F)(F)F)c3)C(Cc3ccccc3)C1)C(=O)O2` (stereo not drawn) [Compound 1.3], in that order: 0.0794 µM, 0.01 µM and 5.01 µM.
Turning to `O=C1OC2(CCN1Cc1ccsc1)CCN(C1CCN(C(=O)c3cc(C(F)(F)F)cc(C(F)(F)F)c3)C(Cc3ccccc3)C1)CC2` (stereo not drawn) [Compound 2.7], the values for the IC50 in data set [2] and in data set [3] were 0.158 µM and 3.98 µM, respectively.
Turning to `O=C(c1ccccc1)N1CCC2(CC1)CCN(C1CCN(C(=O)c3cc(C(F)(F)F)cc(C(F)(F)F)c3)C(Cc3ccccc3)C1)C(=O)O2` (stereo not drawn) [Compound 1.12], the melting point worked out at 110 °C. The IC50 in data set [2] is 0.0501 µM.
Consider `O=C(c1ccoc1)N1CCC2(CC1)CCN(C1CCN(C(=O)c3cc(C(F)(F)F)cc(C(F)(F)F)c3)C(Cc3ccccc3)C1)C(=O)O2` (stereo not drawn) [Compound 1.7], for which the IC50 was 0.126 µM in data set [1], 0.0158 µM in data set [2] and 7.94 µM in data set [3].
For `O=C1OC2(CCN1Cc1ccsc1)CCN(C1CCN(C(=O)c3cc(C(F)(F)F)cc(C(F)(F)F)c3)C(Cc3ccccc3)C1)CC2` (stereo not drawn) [Compound 2.6], in that order: 2.51 µM, 0.2 µM and more than 10 µM.
For `Cc1ccccc1CN1CCC2(CCN(C3CCN(C(=O)c4cc(C(F)(F)F)cc(C(F)(F)F)c4)C(Cc4ccccc4)C3)CC2)OC1=O` (stereo not drawn) [Compound 2.12], in that order: 5.01 µM, 0.251 µM and 3.98 µM.
Take `O=C(C1CCOC1)N1CCC2(CC1)CCN([C@H]1CCN(C(=O)c3cc(C(F)(F)F)cc(C(F)(F)F)c3)[C@H](Cc3ccccc3)C1)C(=O)O2` (stereo partly drawn) [Compound 1.5]: the results for the IC50 in data set [1], in data set [2] and in data set [3] were 0.251 µM, 0.0126 µM and 7.94 µM, respectively.
With `CC(C)(C)CN1CCC2(CCN(C3CCN(C(=O)c4cc(C(F)(F)F)cc(C(F)(F)F)c4)C(Cc4ccccc4)C3)CC2)OC1=O` (single isomer, unassigned) [Compound 2.1], the values for the IC50 in data set [2] and in data set [3] were 0.251 µM and more than 10 µM, respectively.
On to `Cn1cccc1CN1CCC2(CCN(C3CCN(C(=O)c4cc(C(F)(F)F)cc(C(F)(F)F)c4)C(Cc4ccccc4)C3)CC2)OC1=O` (single isomer, unassigned) [Compound 2.10], for which the IC50 in data set [1] is 3.98 µM; in data set [2], 0.0794 µM; in data set [3], 2 µM.
For `O=C(c1cnccn1)N1CCC2(CC1)CCN(C1CCN(C(=O)c3cc(C(F)(F)F)cc(C(F)(F)F)c3)C(Cc3ccccc3)C1)C(=O)O2` (stereo not drawn) [Compound 1.13], in that order: 1.58 µM, 0.0501 µM and 7.94 µM.
In turn, `O=C(c1ccoc1)N1CCC2(CC1)CCN(C1CCN(C(=O)c3cc(C(F)(F)F)cc(C(F)(F)F)c3)C(Cc3ccccc3)C1)C(=O)O2` (stereo not drawn) [Compound 1.8] had a melting point of 192 °C. In addition, the IC50 in data set [2] was 0.0251 µM.
With `O=C1OC2(CCN1Cc1ccoc1)CCN(C1CCN(C(=O)c3cc(C(F)(F)F)cc(C(F)(F)F)c3)C(Cc3ccccc3)C1)CC2` (stereo not drawn) [Compound 2.8], the IC50 in data set [1] was 6.31 µM; in data set [2], 0.251 µM; in data set [3], more than 10 µM.
As to `Cn1cccc1CN1CCC2(CCN(C3CCN(C(=O)c4cc(C(F)(F)F)cc(C(F)(F)F)c4)C(Cc4ccccc4)C3)CC2)OC1=O` (single isomer, unassigned) [Compound 2.9], the values for the IC50 in data set [1] and in data set [2] were 3.16 µM and 0.631 µM, respectively.
Consider `CC(C)(C)CN1CCC2(CCN(C3CCN(C(=O)c4cc(C(F)(F)F)cc(C(F)(F)F)c4)C(Cc4ccccc4)C3)CC2)OC1=O` (single isomer, unassigned) [Compound 2.2], for which the IC50 in data set [1] was 3.98 µM; in data set [2], 0.0631 µM; in data set [3], 2 µM.
The corresponding values for `CCC(CC)CN1CCC2(CCN(C3CCN(C(=O)c4cc(C(F)(F)F)cc(C(F)(F)F)c4)C(Cc4ccccc4)C3)CC2)OC1=O` (single isomer, unassigned) [Compound 2.4] are 7.94 µM, 0.0794 µM and 5.01 µM.
For the molecule `O=C(C1CCOC1)N1CCC2(CC1)CCN(C1CCN(C(=O)c3cc(C(F)(F)F)cc(C(F)(F)F)c3)C(Cc3ccccc3)C1)C(=O)O2` (stereo not drawn) [Compound 1.6], the melting point stood at 102 °C. In addition, the IC50 in data set [2] is 0.0251 µM.
Regarding `O=C1OC2(CCN1Cc1cccnc1)CCN(C1CCN(C(=O)c3cc(C(F)(F)F)cc(C(F)(F)F)c3)C(Cc3ccccc3)C1)CC2` (single isomer, unassigned) [Compound 2.16], the IC50 in data set [1] was 1.58 µM; in data set [2], 0.398 µM; in data set [3] it was more than 10 µM.
For `O=C1OC2(CCN1CC1CCCCC1)CCN(C1CCN(C(=O)c3cc(C(F)(F)F)cc(C(F)(F)F)c3)C(Cc3ccccc3)C1)CC2` (stereo not drawn) [Compound 2.5], in that order: more than 10 µM, 0.2 µM and 5.01 µM.
For `O=C1OC2(CCN1Cc1ccc(O)cc1)CCN(C1CCN(C(=O)c3cc(C(F)(F)F)cc(C(F)(F)F)c3)C(Cc3ccccc3)C1)CC2` (stereo not drawn) [Compound 2.15], in that order: 2 µM, 0.316 µM and more than 10 µM.

The values above are taken from patent publication US8138334B2, “Substituted oxa-diaza-spiro-[5.5]-undecanone derivatives and their use as neurokinin antagonists” (Janssen Pharmaceutica N.V., priority 2005, dated 2012).
